Assay results from patent publication US20240299542A1, “NATURAL KILLER CELLS ENGINEERED TO REDUCE OR ELIMINATE CBL-B AND USES THEREOF” (City of Hope, priority 2021, published 2024).

Assays:
IFN-γ = IFN-γ in supernatants by ELISA; type: cell-based, human
Protocol: (§1) FIGS. 4A-4D depict the results of a study showing that downregulation of Cbl-b increases IFN-γ secretion in IL-15-activated primary human NK cells. (FIG. 4A) RNAseq was conducted using primary human NK cells transduced with either Cbl-b siRNA or Scr siRNA without or with incubation in IL-15 (10 ng/ml) for 16 h (4 donors for each group). […] (FIG. 4B) qRT-PCR was performed to quantify the mRNA levels of IFN-γ (n=6 donors) after IL-15 (10 ng/ml) 6 h stimulation. (FIG. 4C) The percentage of intracellular IFN-γ+ cells in un-transduced NK cells or those transduced with Cbl-b siRNA or Scr siRNA, each activated with IL-15 (10 ng/ml) for 24 h (11.5% vs 4.338%; P=0.0008; n=5 donors). (FIG. 4D) Supernatants were collected after IL-15 (10 ng/ml) for 24 h and IFN-γ concentrations measured by ELISA (18115 pg/ml vs 882.5 pg/ml; P=0.0099; n=7 donors). Scr-scrambled; *P<0.05, **P<0.01, ***P<0.001 by Student's two-tailed paired t-test or One-way ANOVA; ns, not significant. Data presented as mean±SEM.
(§2) ELISA. Primary NK cells were plated in an equivalent number of 100,000 cells/well in a 96-well plate in RPMI and supplemented with 10% FBS. Cells were treated with recombinant human IL-15 (10 ng/ml) for 24 h, and cell-free culture supernatant was collected and frozen at −80° C. for later use. IFN-γ concentration was measured by ELISA using anti-IFN-γ antibody from Thermo Fisher Scientific. Granzyme B concentration was measured by ELISA kit purchased from R&D.
To further explore how Cbl-b regulates the functions of primary human NK cells, we performed RNA-seq analyses using enriched primary NK cells from healthy donors transduced with Cbl-b siRNA or Scr siRNA without or with IL-15 treatment for 16 h (n=4 in each group). […] The intracellular results were supported by assessment IFN-γ secretion into the supernatant, in that IL-15-activated primary human NK cells transduced with Cbl-b siRNA expressed 10-fold higher levels of IFN-γ compared to NK cells transduced with Scr siRNA (FIG. 4D).

perform = assay: Perforin protein by immunoblot in siRNA-transduced NK cells; type: cell-based, human; settings: with IL-15 (10 ng/ml) 24 h, vs Scr siRNA
Protocol: (§3) FIG. 8A Primary human NK cells were transduced with Cbl-b siRNA or a scrambled siRNA (Scr siRNA) for 48 h, directly followed by immunoblot analysis to determine the efficiency of siRNA (n=3 donors). […] FIG. 8B qRT-PCR was performed to quantify the level of perform mRNA (n=7 donors) in Cbl-b siRNA- and Scr siRNA-transduced primary human cells incubated without or with IL-15 (10 ng/ml) for 16 h. FIG. 8C The perform protein level in Cbl-b siRNA- and Scr siRNA-transduced primary human NK cells incubated 24 without or with IL-15 (10 ng/ml) for 24 h was measured by immunoblot analysis. The data are representative of four experiments and are summarized in the right panel. Scr, scrambled; *P<0.05, **P<0.01; ns, not significant. Data are presented as mean±SEM.
Immunoblotting. Cells were harvested and suspended in RIPA lysis buffer (Thermo Fisher Scientific) on ice for 20 minutes. Equal amount of protein was resolved by 5-15% Criterion TGX gel (Bio-Rad) and then transferred onto a Nitrocellulose (NC) or PVDF membrane (Thermo Fisher Scientific). […] Densitometric analysis was performed to quantify intensity of gel bands with Image J (National Institutes of Health).
(§4) Both groups were next incubated without or with IL-15 and co-cultured with ^51Cr labeled MV4-11, Molm-13, or EOL-1 leukemia cell lines, followed by assessment of specific lysis measured after 4 h of co-culture.

Cbl-b = assay: siRNA knockdown efficiency by immunoblot in primary human NK cells; type: cell-based; settings: 48 h transduction, vs Scr siRNA
Protocol: as §3
Transient transfection. Primary human NK cells were transfected with Accell siRNA by using the Accell delivery media from Dharmacon. Gene knockdown efficiency of siRNA was determined with immunoblotting analysis.
Immunoblotting. […] Densitometric analysis was performed to quantify intensity of gel bands with Image J (National Institutes of Health).
as §4

granzyme B [1] = assay: Granzyme B protein by immunoblot in siRNA-transduced NK cells; type: cell-based, human; settings: without or with IL-15 (10 ng/ml) 24 h
Protocol: FIGS. 3A-3E depict the results of a study showing that downregulation of Cbl-b enhances the cytotoxicity of primary human NK cells. (FIGS. 3A and 3B) Primary human NK cells transduced with Cbl-b siRNA or Scr siRNA for 24 h were stimulated without (FIG. 3A) or with (FIG. 3B) a low concentration of IL-15 (2 ng/ml) for 16 h, then co-cultured with ^51Cr labeled Molm-13, MV4-11 or EOL-1 leukemia cell lines for 4 h, followed by quantification of specific tumor cell lysis. Each experiment was repeated with 6 different normal donors. (FIG. 3C) qRT-PCR was performed to quantify the granzyme B (GZMB) mRNA levels (n=8 donors) in siRNA- and Scr siRNA-transduced primary human NK cells incubated without or with IL-15 (10 ng/ml) for 16 h. (FIG. 3D) The concentration of the granzyme B protein in the supernatants of Cbl-b siRNA- and Scr siRNA-transduced primary human NK cells incubated without (688.1 pg/ml vs 525.4 pg/ml; P=0.0232) or with IL-15 (10 ng/ml) for 24 h (8789 pg/ml vs 3397 pg/ml; P=0.0232) was measured by ELISA (n=8 donors). (FIG. 3E) The level of granzyme B protein in Cbl-b siRNA- and Scr siRNA-transduced primary human NK cells incubated without or with IL-15 (10 ng/ml) for 24 h was measured by immunoblot analysis. […]
Immunoblotting. […] Densitometric analysis was performed to quantify intensity of gel bands with Image J (National Institutes of Health). […]

granzyme B [2] = assay: RNA-seq of siRNA-transduced primary human NK cells; type: cell-based; settings: without or with IL-15 (10 ng/ml) 16 h, vs Scr siRNA
Protocol: as §1
To further explore how Cbl-b regulates the functions of primary human NK cells, we performed RNA-seq analyses using enriched primary NK cells from healthy donors transduced with Cbl-b siRNA or Scr siRNA without or with IL-15 treatment for 16 h (n=4 in each group). […]

granzyme B [3] = assay: Granzyme B protein in supernatants by ELISA; type: cell-based, human
Protocol: FIGS. 3A-3E depict the results of a study showing that downregulation of Cbl-b enhances the cytotoxicity of primary human NK cells. (FIGS. 3A and 3B) Primary human NK cells transduced with Cbl-b siRNA or Scr siRNA for 24 h were stimulated without (FIG. 3A) or with (FIG. 3B) a low concentration of IL-15 (2 ng/ml) for 16 h, then co-cultured with ^51Cr labeled Molm-13, MV4-11 or EOL-1 leukemia cell lines for 4 h, followed by quantification of specific tumor cell lysis. Each experiment was repeated with 6 different normal donors. (FIG. 3C) qRT-PCR was performed to quantify the granzyme B (GZMB) mRNA levels (n=8 donors) in siRNA- and Scr siRNA-transduced primary human NK cells incubated without or with IL-15 (10 ng/ml) for 16 h. (FIG. 3D) The concentration of the granzyme B protein in the supernatants of Cbl-b siRNA- and Scr siRNA-transduced primary human NK cells incubated without (688.1 pg/ml vs 525.4 pg/ml; P=0.0232) or with IL-15 (10 ng/ml) for 24 h (8789 pg/ml vs 3397 pg/ml; P=0.0232) was measured by ELISA (n=8 donors). (FIG. 3E) The level of granzyme B protein in Cbl-b siRNA- and Scr siRNA-transduced primary human NK cells incubated without or with IL-15 (10 ng/ml) for 24 h was measured by immunoblot analysis. The data are representative of three experiments. Scr-scrambled; *P<0.05, **P<0.01, ***P<0.001, ****P<0.0001 by One-way or Two-way ANOVA; ns, not significant. Data presented as mean±SEM.
as §2, §4

Substance: Cbl-b siRNA: Cbl-b-specific Accell siRNA (Dharmacon), SEQ ID NO:1, CCUUCAUGUUCAGAUGGUU (Accell modified siRNA, pattern not given here)
- IFN-γ concentration in supernatants (IFN-γ; IL-15 (10 ng/ml) 24 h, n=7 donors): 18115 pg/mL
- secreted IFN-γ level relative to Scr siRNA (IFN-γ; IL-15-activated): 10 fold
- total protein level of perform (perform): significantly increased
- expression of Cbl-b after siRNA transduction (Cbl-b): significant decrease
- total GZMB protein (granzyme B [1]): increase of total GZMB protein
- transcriptional level of granzyme B (RNA-seq) (granzyme B [2]): increased
- concentration of granzyme B protein in supernatants (granzyme B [3]; with IL-15 (10 ng/ml) 24 h, n=8 donors): 8789 pg/mL
- concentration of granzyme B protein in supernatants (granzyme B [3]; without IL-15, n=8 donors): 688.1 pg/mL
